Measured values reported in PMC3553236 (Biochemical pharmacology, 2012).
Where two headings read alike, the source gives them in different places.

How the values were obtained:
[1] = system: MDR19-HEK293 (ABCB1) cells; assay: Cytotoxicity / MDR reversal assay, MDR19-HEK293; assay type: cell-based, human; conditions: for R.R of doxorubicin in the presence of the treatment: MDR19-HEK293 / pcDNA-HEK293
[2] = Cytotoxicity / MDR reversal assay, MDR19-HEK293; assay type: cell-based, human; conditions: human, MDR19-HEK293 cells (ABCB1-transfected HEK293)
pcDNA-HEK293 cells = assay: Cytotoxicity / MDR reversal assay, pcDNA-HEK293; assay type: cell-based; conditions: Homo sapiens
in vitro [3] = conditions: human, MRP1-HEK293 cells (ABCC1-transfected HEK293)
[4] = system: MRP1-HEK293 (ABCC1) cells; conditions: for R.R of etoposide in the presence of the treatment: MRP1-HEK293 / pcDNA-HEK293
ABCG2 [5] = molecular target: T1, ABCG2 (Homo sapiens, UniProt Q9UNQ0)
T1 sequence (Q9UNQ0 1-655): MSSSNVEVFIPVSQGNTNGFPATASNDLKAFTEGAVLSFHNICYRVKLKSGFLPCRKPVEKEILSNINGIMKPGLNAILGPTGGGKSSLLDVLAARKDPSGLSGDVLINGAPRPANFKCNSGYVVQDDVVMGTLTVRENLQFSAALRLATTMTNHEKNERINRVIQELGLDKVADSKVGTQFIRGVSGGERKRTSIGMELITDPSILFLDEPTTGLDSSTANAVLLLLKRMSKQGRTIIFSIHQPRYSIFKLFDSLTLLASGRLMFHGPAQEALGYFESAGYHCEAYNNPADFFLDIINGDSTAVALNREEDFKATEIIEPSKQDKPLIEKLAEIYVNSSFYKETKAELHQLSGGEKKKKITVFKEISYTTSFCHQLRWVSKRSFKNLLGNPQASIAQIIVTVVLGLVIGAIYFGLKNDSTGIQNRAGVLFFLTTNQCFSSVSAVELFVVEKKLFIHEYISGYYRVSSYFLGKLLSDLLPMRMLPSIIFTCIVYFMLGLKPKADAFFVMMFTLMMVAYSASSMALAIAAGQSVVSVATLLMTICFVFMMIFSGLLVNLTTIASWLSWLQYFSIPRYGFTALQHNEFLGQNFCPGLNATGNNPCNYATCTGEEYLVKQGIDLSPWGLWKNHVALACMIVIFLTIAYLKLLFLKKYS

A375-G2 cells = assay: cells; assay type: cell-based, human; conditions: for IC50: Homo sapiens, A-375
[6] = system: R482-HEK293 (ABCG2) cells; assay: in vitro; assay type: cell-based, human; conditions: for R.R (relative resistance): IC50 R482-HEK293 / IC50 pcDNA-HEK293, drug alone
[7] = system: BRAF(V600E) mutant A375 melanoma cells; assay: cells; assay type: cell-based, human
in vitro [8] = assay type: cell-based, human; conditions: human, R482-HEK293 cells (ABCG2-transfected HEK293)
CORL-23/P cells = assay: Cytotoxicity assay; assay type: cell-based; conditions: Homo sapiens, COR-L23
ABCG2 (wild type R482) = ABCG2 (wild type R482) (Homo sapiens, UniProt Q9UNQ0); assay: ABCG2-mediated mitoxantrone efflux, flow cytometry, MCF7-FLV1000
[9] = system: drug sensitive parental cells; assay: Fluorescent probe accumulation in drug sensitive parental cells; assay type: cell-based, human; conditions: up to 50 µM
MCF7-AdVp3000 cells = assay: cells; conditions: Homo sapiens
ABCB1 [10] = molecular target: T2, ABCB1 (Homo sapiens, UniProt P08183); assay: [125I]IAAP photoaffinity labeling of ABCB1
T2 sequence (P08183 whole entry): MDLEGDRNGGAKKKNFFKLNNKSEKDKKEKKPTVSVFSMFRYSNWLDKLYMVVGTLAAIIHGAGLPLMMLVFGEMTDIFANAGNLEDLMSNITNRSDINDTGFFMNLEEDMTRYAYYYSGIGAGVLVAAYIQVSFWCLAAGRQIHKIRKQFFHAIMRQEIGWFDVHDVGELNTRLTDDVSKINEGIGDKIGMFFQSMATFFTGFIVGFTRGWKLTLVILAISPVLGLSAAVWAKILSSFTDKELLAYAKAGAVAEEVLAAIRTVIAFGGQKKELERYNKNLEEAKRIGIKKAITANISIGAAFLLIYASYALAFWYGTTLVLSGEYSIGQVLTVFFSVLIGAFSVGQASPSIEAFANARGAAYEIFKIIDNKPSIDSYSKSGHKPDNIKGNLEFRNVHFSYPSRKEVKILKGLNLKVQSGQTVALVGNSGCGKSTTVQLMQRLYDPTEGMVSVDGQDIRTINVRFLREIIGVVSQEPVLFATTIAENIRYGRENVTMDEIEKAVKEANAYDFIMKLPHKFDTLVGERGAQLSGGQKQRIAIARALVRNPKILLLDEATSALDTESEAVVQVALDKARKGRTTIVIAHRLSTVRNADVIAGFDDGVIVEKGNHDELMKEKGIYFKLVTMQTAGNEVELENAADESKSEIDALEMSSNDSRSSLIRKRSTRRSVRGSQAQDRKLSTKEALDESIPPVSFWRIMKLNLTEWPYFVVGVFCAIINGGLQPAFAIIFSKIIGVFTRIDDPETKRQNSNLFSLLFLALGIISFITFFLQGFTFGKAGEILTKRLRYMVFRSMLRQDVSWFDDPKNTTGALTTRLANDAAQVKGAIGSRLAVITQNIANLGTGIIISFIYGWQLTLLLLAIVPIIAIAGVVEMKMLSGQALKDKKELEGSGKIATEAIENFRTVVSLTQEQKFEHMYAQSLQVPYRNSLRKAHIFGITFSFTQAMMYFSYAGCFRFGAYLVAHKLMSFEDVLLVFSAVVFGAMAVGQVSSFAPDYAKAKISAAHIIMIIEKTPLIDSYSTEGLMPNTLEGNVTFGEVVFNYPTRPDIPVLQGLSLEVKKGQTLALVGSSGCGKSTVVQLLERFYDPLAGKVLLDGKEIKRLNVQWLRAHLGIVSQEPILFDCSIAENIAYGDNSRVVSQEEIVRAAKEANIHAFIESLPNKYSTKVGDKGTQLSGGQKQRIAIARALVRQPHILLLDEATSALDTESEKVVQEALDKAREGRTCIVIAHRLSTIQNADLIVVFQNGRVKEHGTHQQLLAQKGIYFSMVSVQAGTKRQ

ABCG2 [11] = conditions: MCF7-FLV1000; 0.3 µM-10 µM, 72 h
ABCG2 [12] = conditions: 2 µM; ABCG2-overexpressing HEK293, MCF7-FLV1000, MCF7-AdVp3000 and S1-M1-80
ABCB1 [13] = molecular target: T2, ABCB1; assay: ABCB1-mediated calcein-AM efflux, flow cytometry; conditions: 2 µM, MDR19-HEK293 and KBV-1
ABCG2 (R482T) = ABCG2 (R482T) (Homo sapiens, UniProt Q9UNQ0, R482T); assay: ABCG2-mediated mitoxantrone efflux, flow cytometry, MCF7-AdVp3000
Chain of ABCG2 (R482T) (Q9UNQ0 whole entry R482T): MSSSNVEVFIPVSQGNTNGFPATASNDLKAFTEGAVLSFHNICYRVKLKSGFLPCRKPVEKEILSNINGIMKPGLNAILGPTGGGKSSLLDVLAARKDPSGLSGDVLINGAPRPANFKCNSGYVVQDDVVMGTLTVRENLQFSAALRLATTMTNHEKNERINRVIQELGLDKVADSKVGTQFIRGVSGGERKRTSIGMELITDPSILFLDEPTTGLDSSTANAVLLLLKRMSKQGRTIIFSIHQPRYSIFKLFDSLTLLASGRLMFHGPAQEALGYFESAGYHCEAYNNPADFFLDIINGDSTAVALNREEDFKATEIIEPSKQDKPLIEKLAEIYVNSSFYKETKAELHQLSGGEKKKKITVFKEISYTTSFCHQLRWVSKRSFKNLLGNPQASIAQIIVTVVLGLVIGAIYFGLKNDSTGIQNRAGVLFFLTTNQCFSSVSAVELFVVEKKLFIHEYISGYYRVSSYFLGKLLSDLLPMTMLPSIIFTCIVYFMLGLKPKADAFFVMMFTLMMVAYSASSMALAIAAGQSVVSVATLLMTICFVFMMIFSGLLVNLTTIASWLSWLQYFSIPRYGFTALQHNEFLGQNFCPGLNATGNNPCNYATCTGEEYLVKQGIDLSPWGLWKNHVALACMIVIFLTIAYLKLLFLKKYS

ABCC1 = assay type: cell-based, human; conditions: CORL-23/R; 0.3 µM-10 µM, 72 h
MCF7-FLV1000 cells = assay: cells; conditions: Homo sapiens, MCF-7 FLV1000
S1 cells = assay: Cytotoxicity assay; assay type: cell-based; conditions: Homo sapiens
Colo-205 cells = assay: Cytotoxicity assay; assay type: cell-based; conditions: Homo sapiens
S1-M1-80 cells = assay: cells; conditions: Homo sapiens
MCF7 cells = assay: Cytotoxicity assay; assay type: cell-based; conditions: Homo sapiens
BRAF kinase = BRAF kinase activity in A375 and A375-G2 cells; assay type: cell-based, human; conditions: 0.2 – 5.0 µM, 4 h
ABCB1 [14] = conditions: KBV-1; 0.3 µM-10 µM, 72 h
KBV-1 cells = assay: cells; conditions: Homo sapiens, KB-V1
ABCB1 [15] = molecular target: T2, ABCB1; assay: cell-based
ABCG2 [16] = molecular target: T1, ABCG2; assay: Vi-sensitive ATPase activity of ABCG2; assay type: biochemical
ABCG2 (R482G) = ABCG2 (R482G) (Homo sapiens, UniProt Q9UNQ0, R482G); assay: ABCG2-mediated mitoxantrone efflux, flow cytometry, S1-M1-80
Chain of ABCG2 (R482G) (Q9UNQ0 whole entry R482G): as the sequence (Q9UNQ0 whole entry R482T) above, with T482G counted along it

ABCB1 [17] = molecular target: T2, ABCB1; assay: Vi-sensitive ATPase activity of ABCB1; assay type: biochemical
CORL-23/R cells = assay: cells; conditions: Homo sapiens, COR-L23/R
KB-3-1 cells = assay: Cytotoxicity assay; assay type: cell-based; conditions: Homo sapiens
ABCG2 [18] = molecular target: T1, ABCG2; assay: biochemical
[19] = doxorubicin + treatment at 1 µM

For `COc1cccc2c1C(=O)c1c(O)c3c(c(O)c1C2=O)C[C@@](O)(C(=O)CO)C[C@@H]3O[C@H]1C[C@H](N)[C@H](O)[C@H](C)O1` [Doxorubicin], the “R.R (relative resistance)” value ([1]; IC50 MDR19-HEK293 / IC50 pcDNA-HEK293, drug alone) was 32, the IC50 [2] was 594 ± 78 nM and the IC50 (pcDNA-HEK293 cells) was 18.5 ± 8.31 nM.
In the case of `COc1cc([C@@H]2c3cc4c(cc3[C@@H](O[C@@H]3O[C@@H]5CO[C@@H](C)O[C@H]5[C@H](O)[C@H]3O)[C@H]3COC(=O)[C@H]23)OCO4)cc(OC)c1O` [Etoposide], the IC50 (in vitro [3]) is reported as 34900 ± 4030 nM, the “R.R (relative resistance)” value ([4]; IC50 MRP1-HEK293 / IC50 pcDNA-HEK293, drug alone) is reported as 161 and the IC50 (pcDNA-HEK293 cells) is reported as 217 ± 72 nM.
For `COc1ccc2c3c([nH]c2c1)[C@H](C=C(C)C)N1C(=O)[C@@H]2CCCN2C(=O)[C@@H]1C3` [FTC, Fumitremorgin C], the “ABCG2-mediated efflux of pheophorbide A” value (ABCG2 [5]; A375-G2, 5 µM) was “inhibited completely”, the “R.R of mitoxantrone in the presence of the treatment” value (from here on “R.R of mitoxantrone”) (A375-G2 cells; A375-G2 / A375, mitoxantrone + treatment at 3 µM) was 2 and the “R.R of vemurafenib in the presence of the treatment” value (A375-G2 cells; A375-G2 / A375, vemurafenib + treatment at 3 µM) was 1. The “reversal of ABCG2-mediated resistance to vemurafenib” value (A375-G2 cells; A375-G2, FTC 3 µM (Table 2)) was “reversed completely”, the “R.R of mitoxantrone” value ([6]; R482-HEK293 / pcDNA-HEK293, mitoxantrone + treatment at 3 µM) was 5 and the “R.R of topotecan in the presence of the treatment” value ([6]; R482-HEK293 / pcDNA-HEK293, topotecan + treatment at 3 µM) was 3.
In the case of `O=C1c2c(O)ccc(O)c2C(=O)c2c(NCCNCCO)ccc(NCCNCCO)c21` [Mitoxantrone], the IC50 ([7]; Homo sapiens, A-375, A375, drug alone) is reported as 2.35 ± 0.64 nM, the “fold more resistant, A375-G2 than parental A375 cells” value (A375-G2 cells) is reported as “over 6 fold” and the IC50 (A375-G2 cells) is reported as 15 ± 3.48 nM. The “R.R (relative resistance)” value (A375-G2 cells; IC50 A375-G2 / IC50 A375, drug alone) was 6, the “R.R (relative resistance)” value [6] was 34 and the IC50 (in vitro [8]) was 178 ± 19 nM. For the same compound, the IC50 (pcDNA-HEK293 cells) was 5.3 ± 1.24 nM.
With `COc1cc2c(cc1OC)CN(CCc1ccc(NC(=O)c3cc(OC)c(OC)cc3NC(=O)c3cnc4ccccc4c3)cc1)CC2` [Tariquidar] the “R.R of doxorubicin in the presence of the treatment” value (from here on “R.R of doxorubicin”) [1, 19] was 3.
For `CC[C@@]1(O)C(=O)OCc2c1cc1n(c2=O)Cc2cc3c(CN(C)C)c(O)ccc3nc2-1` [Topotecan], the “R.R (relative resistance)” value [6] was 28, the IC50 (in vitro [8]) was 510 ± 94.5 nM and the IC50 (pcDNA-HEK293 cells) was 18.3 ± 4.48 nM.
In the case of `CCCS(=O)(=O)Nc1ccc(F)c(C(=O)c2c[nH]c3ncc(-c4ccc(Cl)cc4)cc23)c1F` [Vemurafenib], the IC50 (CORL-23/P cells) is reported as 8520 ± 1390 nM, the IC50 (ABCG2 (wild type R482)) is reported as 1240 nM and the “effect on accumulation of fluorescent probes in drug sensitive parental cells” value [9] is reported as “no effect”. It also gave an IC50 (in vitro [3]) of 21800 ± 2560 nM, an IC50 (MCF7-AdVp3000 cells) of 70000 ± 27400 nM and an IC50 (ABCB1 [10]) of 4510 nM. For the same compound, the “effect on ABCG2 protein expression level” value (ABCG2 [11]) was “no significant effect”, the “ABCG2-mediated efflux of PhA” value (ABCG2 [12]) was “inhibited significantly” and the “effect on drug efflux mediated by ABCB1” value (ABCB1 [13]) was “no significant effect”. For the same compound, the “ABCG2-mediated efflux of pheophorbide A” value (ABCG2 [5]) was “inhibited completely”, the IC50 (ABCG2 (R482T)) was 4910 nM and the “effect on ABCC1 protein expression level” value (ABCC1) was “no significant effect”. It also gave an IC50 (MCF7-FLV1000 cells) of 58700 ± 15800 nM, an IC50 (S1 cells) of 13600 ± 3840 nM and an IC50 [7] of […]. The IC50 ([7]; Homo sapiens, A-375) was […], the “R.R of etoposide in the presence of the treatment” value (shortened to “R.R of etoposide”) ([4]; etoposide + treatment at 1 µM) was 159 and the “R.R of etoposide” value ([4]; etoposide + treatment at 2 µM) was 165. For the same compound, the “R.R of etoposide” value ([4]; etoposide + treatment at 5 µM) was 116, the IC50 (Colo-205 cells) was 118 ± 11 nM and the IC50 (S1-M1-80 cells) was 14700 ± 3020 nM. For the same compound, the IC50 (MCF7 cells) was 53600 ± 9420 nM, the “inhibitory effect on p-MEK1/2, A375 versus A375-G2” value (BRAF kinase) was “comparable” and the “levels of total MEK1/2 and ERK1/2” value (BRAF kinase; A375 and A375-G2) was “remained unchanged”. The “levels of p-MEK1/2 and p-ERK1/2” value (BRAF kinase; A375 and A375-G2, concentration-dependent) was “reduced”, the “effect on ABCB1 protein expression level” value (ABCB1 [14]) was “no significant effect” and the IC50 (KBV-1 cells) was 16900 ± 4970 nM. For the same compound, the IC50 (ABCB1 [15]) was greater than 50000 nM, the “inhibition of ATPase activity” value (ABCG2 [16]; higher concentrations) was ~ 90% and the “stimulation of ATPase activity above basal level” value (ABCG2 [16]; lower concentrations) was ~ 95%. The “R.R of mitoxantrone” value (A375-G2 cells; A375-G2 / A375, mitoxantrone + treatment at 0.02 µM) was 2, the IC50 (A375-G2 cells) was 215 ± 32.8 nM and the “R.R of doxorubicin” value [1, 19] was 23. The “R.R of doxorubicin” value ([1]; doxorubicin + treatment at 2 µM) was 23, the “R.R of doxorubicin” value ([1]; doxorubicin + treatment at 5 µM) was 22 and the “re-sensitization of R482-HEK293 cells to mitoxantrone” value [6] was ~ 6 fold. The “re-sensitization of R482-HEK293 cells to topotecan” value [6] was ~ 9 fold, the IC50 (ABCG2 (R482G)) was 2600 nM and the “inhibition of ATPase activity” value (ABCB1 [17]; higher concentrations) was ~ 50%. For the same compound, the “stimulation of ATPase activity above basal level” value (ABCB1 [17]; lower concentrations) was ~ 40%, the IC50 (CORL-23/R cells) was 8540 ± 2250 nM and the IC50 (KB-3-1 cells) was 14800 ± 4190 nM. For the same compound, the IC50 (ABCG2 [18]) was 570 nM and the IC50 (pcDNA-HEK293 cells) was 28100 ± 6930 nM.
